Tests used:
Format in all cases: cell-based
[1] = test system: key genes in the Pseudomonas aeruginosa quorum sensing system and virulent genes regulated thereby; assay: Influence of geraniol on expression of key quorum sensing genes and regulated virulent genes (real-time fluorescent quantitative PCR); settings: low concentration of geraniol (0.313 to 2.5 μL/mL), PAO1; concluded from the experiments
[2] = test system: key genes in the Pseudomonas aeruginosa quorum sensing system and virulent genes regulated thereby; assay: as above; settings: 1.25 μL/mL geraniol, 5 h, PAO1
Description: The PAO1 bacterial suspension in a logarithmic growth phase was added to 50 mL sterile LB liquid medium to make a final concentration of the bacterial solution reach 10^6 CFU/mL. Geraniol was added to make a final concentration become 0 μL/mL (three biological replicates in a control group were respectively named A1, A2 and A3) and 1.25 μL/mL (three biological replicates in an experimental group were respectively named B1, B2 and B3); the respective groups were cultured at 37° C. and 180 rpm for 5 h, centrifuged to collect Bacteria, and then snap-frozen at −80° C. for later use.
Total bacterial RNA was extracted with a kit of Trizol (Thermo Company). After extraction, purity of RNA was detected with an ultra-micro spectrophotometer (Implen, Munich, Germany). An A260/A280 value of each RNA sample should be between 1.8 and 2.0. Reverse transcription and real-time fluorescent quantitative PCR amplification were performed with the PrimeScript RT Master Mix kit (Takara, Dalian, China) and the ETC 811 PCR instrument (Beijing Eastwin Life Sciences, Inc.). A q-PCR reaction system adopted Takara's SYBR Premix Ex TaqII (Tli RNaseH Plus) (Code No. RR820A); the PCR program was pre-denaturation at 95° C. for 30 s; denaturation at 95° C. for 5 s, annealing at 60° C. for 34 s, 40 loops; according to the 10 gene sequences already published on the GenBank website, primers for q-PCR were designed with Primer Premier 5.0 software, and meanwhile, the 16SrRNA gene was used as an internal reference gene.
Table 1 Genes and primer sequences thereof used in real-time fluorescent quantitative PCR

[3] = test system: Pseudomonas aeruginosa PAO1; assay: Influence of geraniol on Pseudomonas aeruginosa PAO1 growth (growth curve, OD600, Bioscreen C)
Description: An LB medium and geraniol were respectively added to test tubes, joined with the PAO1 bacterial suspension in the exponential growth phase, to make total volumes all reach 10 mL, so that PAO1 bacterial concentrations were all 10^6 CFU/mL, and concentrations of geraniol were respectively 0 μL/mL (control), 0.313 μL/mL, 0.625 μL/mL, 1.25 μL/mL, and 2.5 μL/mL. Samples from the experimental groups were respectively added to a honeycomb culture plate dedicated to an automatic growth curve analyzer (Bioscreen C), which has each well added with 350 μL culture medium; and each experimental group has three parallel experiments. The honeycomb culture plate was placed in the automatic growth curve analyzer, for shaking culture at 37° C. for 3 days, with OD600 measured every hour. Taking OD600 as an ordinate and culture time as an abscissa, a growth curve of PAO1 under an action of geraniol was drawn to study influence of geraniol on PAO1 growth.

With `CC(C)=CCC/C(C)=C/CO` [geraniol, Geraniol] the “synthesis of 3OC12-HSL signal molecules” value [1] was “significantly promote synthesis”, the “expression level of pelF” value [2] was “not significantly down-regulated” and the “expression level of pslB” value [2] was “not significantly down-regulated”. For the same compound, the “expression level of the signal molecule synthase encoding gene rhl (rhl system)” value [2] was “does not change significantly”, the “expression level of toxA” value [2] was “not significantly down-regulated” and the “expression level of virulent gene chiC” value [2] was “significantly down-regulated”. For the same compound, the “expression level of virulent gene lasA” value [2] was “significantly down-regulated”, the “expression level of virulent gene lasB” value [2] was “significantly down-regulated” and the “expression level of virulent gene phzM” value [2] was “significantly down-regulated”. For the same compound, the “expression of lasI (signal molecule synthase gene, las system)” value [2] was “up-regulated”, the “expression of lasR (signal molecule receptor protein gene, las system)” value [2] was “down-regulated” and the “expression of pqsA (signal molecule synthase gene, pqs system)” value [2] was “down-regulated”. The “expression of pqsR (signal molecule receptor protein gene, pqs system)” value [2] was “up-regulated”, the “expression of rhlR (signal molecule receptor protein gene, rhl system)” value [2] was “down-regulated” and the “growth of PAO1 cells (OD600 growth curve)” value ([3]; geraniol 0.313, 0.625, 1.25 and 2.5 μL/mL, LB, 37° C., 3 days) was “slightly inhibit growth”. For the same compound, the “concentration dependence of effect on growth of PAO1 cells” value ([3]; geraniol 0.313 to 2.5 μL/mL) was “concentration-dependent inhibitory effect”, the “antibacterial activity compared with other geraniol groups” value ([3]; geraniol 2.5 μL/mL) was “highest antibacterial activity” and the “bacterial proliferation rate in the logarithmic growth phase” value ([3]; geraniol 2.5 μL/mL, versus other groups) was “significantly lower than other groups”.
